Among the data in ChEMBL document CHEMBL1124928, “Inhibition of monoamine oxidases A and B by simple isoquinoline alkaloids: racemic and optically active 1,2,3,4-tetrahydro-, 3,4-dihydro-, and fully aromatic isoquinolines” (J Med Chem, 1990) are Ki values, retold here.

Structures can show the parent of a compound that is named as a salt.

For test [1], the target named is T1, Amine oxidase [flavin-containing] A (Homo sapiens, UniProt P21397).
T1 sequence (P21397 whole entry): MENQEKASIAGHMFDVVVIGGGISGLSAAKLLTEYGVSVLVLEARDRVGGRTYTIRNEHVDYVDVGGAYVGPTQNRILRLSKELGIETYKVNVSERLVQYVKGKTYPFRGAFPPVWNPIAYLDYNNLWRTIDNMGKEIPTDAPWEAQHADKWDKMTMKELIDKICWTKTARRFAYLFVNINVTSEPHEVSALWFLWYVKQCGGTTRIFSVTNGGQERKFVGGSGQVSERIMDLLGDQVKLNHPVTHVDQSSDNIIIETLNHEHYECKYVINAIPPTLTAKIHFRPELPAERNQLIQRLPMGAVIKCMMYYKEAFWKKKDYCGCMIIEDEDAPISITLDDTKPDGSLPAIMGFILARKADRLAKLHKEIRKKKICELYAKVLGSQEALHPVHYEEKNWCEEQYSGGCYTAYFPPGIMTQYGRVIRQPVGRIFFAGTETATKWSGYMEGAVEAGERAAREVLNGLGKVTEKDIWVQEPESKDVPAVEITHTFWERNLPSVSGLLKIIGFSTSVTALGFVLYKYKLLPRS

In test [2] the target is T1, Amine oxidase [flavin-containing] A. The test can be described thus: Compound was tested for inhibition against human placental Monoamine oxidase A (competitive inhibition was observed).
In test [3] the target is T2, Amine oxidase [flavin-containing] B (Homo sapiens, UniProt P27338).
T2 sequence (P27338 whole entry): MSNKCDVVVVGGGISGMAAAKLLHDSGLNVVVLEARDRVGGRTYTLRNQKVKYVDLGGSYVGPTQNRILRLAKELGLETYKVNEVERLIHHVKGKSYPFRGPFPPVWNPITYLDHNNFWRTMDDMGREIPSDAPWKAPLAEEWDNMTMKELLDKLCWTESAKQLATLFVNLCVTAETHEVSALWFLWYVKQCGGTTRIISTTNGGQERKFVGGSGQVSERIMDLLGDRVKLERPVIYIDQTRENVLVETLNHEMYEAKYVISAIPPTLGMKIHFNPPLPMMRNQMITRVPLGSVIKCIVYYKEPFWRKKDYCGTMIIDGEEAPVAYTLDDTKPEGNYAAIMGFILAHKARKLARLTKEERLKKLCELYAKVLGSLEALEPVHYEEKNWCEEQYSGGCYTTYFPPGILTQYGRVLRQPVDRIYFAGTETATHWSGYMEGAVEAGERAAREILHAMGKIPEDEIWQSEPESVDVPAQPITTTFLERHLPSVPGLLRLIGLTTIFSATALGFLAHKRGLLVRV
Kind of test: Compounds were tested for inhibition against human liver Monoamine oxidase B (competitive inhibition was observed).

Test [4] has as its target T2, Amine oxidase [flavin-containing] B. The test can be described thus: Compounds were tested for inhibition against human liver Monoamine oxidase B (mixed inhibition was observed).
Test [5] deals with T1, Amine oxidase [flavin-containing] A. The test can be described thus: Compounds were tested for inhibition against human placental Monoamine oxidase A (mixed inhibition was observed).

For `COc1cc2c(cc1OC)C(C)=NCC2`, the Ki in test [1] was 4 µM. Still for that read-out and setting: the value for `COc1cc2c(cc1O)C(C)=NCC2` was 13 µM; that for `COc1cc2c(c(OC)c1OC)C(C)NCC2` (racemic) was 170 µM; that for `COc1cc2c(C)nccc2cc1O` [listing 1 of 2 here] was 150 µM. `COc1cc2c(c(OC)c1OC)C(C)=NCC2` registered an inhibitory constant (Ki) in test [1] of 2 µM. The same measure, in the same setting: the value for `COc1cc2c(cc1O)CCN[C@H]2C` [SALSOLINE HYDROCHLORIDE] was 160 µM; that for `COc1cc2c(cc1O)C(C)NCC2` (racemic) was 34 µM.

`COc1c2c(c(OC)c(OC)c1OC)C(C)NCC2` (racemic): affinity in test [1] was put at a Ki of 1000 µM. In the case of `COc1cc2c(cc1OC)CN(C)CC2`, the inhibition constant Ki in test [2] was determined as 27 µM; in test [3], 29 µM. On to `COc1cc2c(cc1OC)[C@H](C)NCC2`, for which the inhibition constant (Ki) in test [1] came to 186 µM.

In turn, `COc1cc2c(cc1OC)[C@@H](C)NCC2` displayed a Ki in test [1] of 6 µM. In turn, `COc1cc2c(cc1O)CCN[C@@H]2C` registered an inhibitory constant (Ki) in test [1] of 77 µM. As for `COc1cc2c(cc1OC)[C@H](C)N(C)CC2` [CARNEGINE HYDROCHLORIDE], the Ki in test [1] is 102 µM; in test [4], 1600 µM. `COc1cc2ccncc2c(OC)c1OC` had an inhibitory constant (Ki) in test [1] of 41 µM.

Regarding `C[C@@H]1NCCc2cc(O)c(O)cc21` [SALSOLINOL HYDROBROMIDE], the affinity in test [1] corresponds to a Ki of 284 µM. The same measure, in the same setting: the value for `COc1cc2c(c(OC)c1OC)C(C)N(C)CC2` (racemic) was 160 µM; that for `COc1cc2c(cc1O)CCN=C2C` was 80 µM. For the compound `COc1cc2c(C)nccc2cc1O` [listing 2 of 2 here], the inhibition constant Ki in test [1] was 130 µM. With `COc1c2c(c(OC)c(OC)c1OC)CN(C)CC2` [WEBERINE], the Ki was 260 µM in test [1] and 1900 µM in test [3]. Compound `COc1cc2c(cc1OC)[C@@H](C)N(C)CC2` had a Ki in test [1] of 2 µM. As for `COc1cc2c(cc1O)CCN(C)[C@H]2C` (racemic), the figures for the Ki in test [3] and in test [5] were 2300 µM and 70 µM, respectively. In test [1], `COc1c2c(c(OC)c(OC)c1OC)C(C)=NCC2` had a Ki of 10 µM. For the compound `COc1c(OC)c(OC)c2c(C)nccc2c1OC`, in test [1], the affinity, expressed as Ki, was 17 µM. On to `COc1c2c(c(OC)c(OC)c1OC)CNCC2` [NORWEBERINE], for which the Ki was determined as 700 µM in test [5] and 580 µM in test [4]. Turning to `C[C@H]1NCCc2cc(O)c(O)cc21`, the Ki in test [1] is 31 µM. As to `CN1CCc2ccccc2C1`, the Ki in test [3] was 1 µM.

In test [5], `Cc1nccc2cc(O)c(O)cc12` showed a Ki of 130 µM. Consider `C[N+]1=Cc2ccccc2CC1`, for which the inhibitory constant (Ki) in test [1] is 130 µM; in test [3], 76 µM. In test [1], `CN1CCc2cc(O)c(O)cc2C1` displayed a Ki of 1300 µM. Still for that read-out and setting: the same measure for `CC1c2cc(O)c(O)cc2CCN1C` (racemic): 36 µM; for `COc1cc2c(cc1OC)CC[N+](C)=C2`: 6 µM. `COc1ccc2c(c1)CC[N+](C)=C2`: the inhibition constant Ki in test [1] amounted to 4 µM; in test [3] it was 15 µM.

A word on the Ki: it is a dissociation constant, usually derived from enzyme kinetics or from competition with a known ligand.
